According to EP0321274A1, “Derivatives of thioformamide” (RHONE POULENC RORER LIMITED, priority 1987, dated 1989):

Assays:
isolated rat aorta = assay: Test A: activity against contractions induced by low K⁺ concentrations (20 mM K⁺) in the isolated rat aorta; format: cell-based; conditions: concentration reducing the 20 mM K⁺-induced contraction by 90%; rat thoracic aorta strips denuded of endothelium; read-out: Activity Test A EC₉₀
Experimental: The test methods used were adapted from those described by Winslow et al [Eur.J.Pharmacol., 131, 219-228 (1986)] and Karaki [J.Pharmacol. Methods, 18, 1-21 (1987)] for differentiating vaso-relaxant activity.
Test A : Activity against contractions induced by low K⁺ concentrations in the isolated rat aorta
Thoracic aorta was removed from rats and transverse strips, denuded of endothelium, were suspended in a bath containing Krebs solution. The tension was recorded and a contraction induced by addition of 20 mM K⁺ (potassium ion) to the bathing solution. The test compound was added to the bath as a solution in increasing cumulative concentration. The concentration in the bathing solution of the test compound which reduced the K⁺-induced contraction by 90% was determined and expressed in µM as the effective concentration (EC₉₀), given in Table I.

[1] = tested on: histamine-induced bronchospasm; assay: Histamine-induced bronchospasm in the anaesthetised guinea pig (method of Dixon and Brodie), nebulised aerosol; format: in vivo; conditions: nebulised aerosol for 1 minute, control 80
Experimental: (§1) In in vivo tests in the anaesthetised guinea pig, performed according to the method of Dixon W.E. and Brodie T.G., J. Physiol 29, pp 97-173 (1903), Compound BD affected histamine-induced bronchospasm and blood pressure as follows:-
(§2) A nebulised aerosol generated from an aqueous solution having a given concentration was administered for 1 minute to the anaesthetised guinea pigs.

blood pressure = assay: Blood pressure in the anaesthetised guinea pig (same experiment as bronchospasm test); format: in vivo; conditions: nebulised aerosol for 1 minute, control 42
Experimental: as §1, §2

Compound | EC90 (isolated rat aorta) | other results
CNC(=S)C1(c2cccnc2)CCCCC1=O (racemic) [Compound A, (±)-N-methyl-2-oxo-1-(3-pyridyl)cyclohexanecarbothioamide] | 800 nM | 
CNC(=S)C1(c2cnc3ccccc3c2)CCCCC1=O (racemic) [Compound B, (±)-N-methyl-2-oxo-1-(3-quinolinyl)cyclohexanecarbothioamide] | 70 nM | 
CNC(=S)C1(c2cccnc2)CCC/C1=N\OCc1ccc(F)cc1 (racemic) [Compound BD, (±)-anti-N-methyl-2-(4-fluorobenzyloxyimino)-1-(3-pyridyl)cyclopentanecarbothioamide] |  | % maximum bronchospasm ([1]; 100µg/ml aqueous solution): 76%; % maximum bronchospasm ([1]; 300µg/ml aqueous solution): 46%; % maximum bronchospasm ([1]; 1000µg/ml aqueous solution): 22%; B.P. (blood pressure; 100µg/ml aqueous solution): 49 mmHg; B.P. (blood pressure; 300µg/ml aqueous solution): 43 mmHg; B.P. (blood pressure; 1000µg/ml aqueous solution): 40 mmHg
CNC(=S)C1(c2cccnc2)CCCC/C1=N\OC (racemic) [Compound G, (±)-anti-N-methyl-2-methoxyimino-1-(3-pyridyl)cyclohexanecarbothioamide] | 300 nM | 
(±)-cis-N-methyl-2-hydroxy-1-(3-pyridyl)cyclohexanecarbothioamide | 24000 nM | 
(±)-trans-N-methyl-2-hydroxy-1-(3-pyridyl)cyclohexanecarbothioamide | 7500 nM | 

More lines, main results first:

EC90 (isolated rat aorta) | Compound | other results
10 nM | CNC(=S)C1(c2cccnc2)CCCC/C1=N\OCc1ccccc1 (racemic) [Compound H, (±)-anti-N-methyl-2-benzyloxyimino-1-(3-pyridyl)cyclohexanecarbothioamide] | 
240 nM | CNC(=S)C1(c2ccc(Cl)nc2)CCCCC1=O (racemic) [Compound R, (±)-N-methyl-2-oxo-1-(6-chloropyrid-3-yl)cyclohexanecarbothioamide] | 
400 nM | CNC(=S)C1(c2cncc(Br)c2)CCCCC1=O (racemic) [Compound S, (±)-N-methyl-2-oxo-1-(5-bromopyrid-3-yl)cyclohexanecarbothioamide] | 
300 nM | CCNC(=S)C1(c2cccnc2)CCCCC1=O (racemic) [T, (±)-N-ethyl-2-oxo-1-(3-pyridyl)cyclohexanecarbothioamide] | 
300 nM | CNC(=S)[C@]1(c2cnc3ccccc3c2)CCCC/C1=N\N1CCC[C@H]1COC [Compound J, (2S)-anti-2-(methoxymethyl)-1-[2′-(3-quinolinyl)-2′-methylthiocarbamoylcyclohexylideneamino]pyrrolidine] | 
